Assay results: patent publication US20240150377A1, “MODULATORS OF CYSTIC FIBROSIS TRANSMEMBRANE CONDUCTANCE REGULATOR” (VERTEX PHARMACEUTICALS INCORPORATED, priority 2020, published 2024)
Where two headings read alike, the source gives them in different places.

Molecular target: CFTR (Homo sapiens, UniProt P13569)
Assay: Membrane potential dye, Enteroid Assay A
Assay type: cell-based
Conditions: for Ent. A Max Activity: chloride transport as % of triple combination control (Enteroid Assay A); for EC50: human enteroid cells, 18-24 hours, acute 10 μM forskolin and 300 nM ivacaftor, read-out: Ent. A EC50
Experimental: Base medium (ADF+++) consisted of Advanced DMEM/Ham's F12, 2 mM Glutamax, 10 mM HEPES, […] penicillin/streptomycin.
Intestinal enteroid maintenance medium (IEMM) consisted of ADF+++, 1× B27 supplement, 1× N2 supplement, 1.25 mM N-acetyl cysteine, 10 mM Nicotinamide, 50 ng/mL hEGF, 10 nM Gastrin, 1 μg/mL hR-spondin-1, 100 ng/mL hNoggin, TGF-b type 1 inhibitor A-83-01, 100 μg/mL Primocin, 10 μM P38 MAPK inhibitor SB202190.
Bath 1 Buffer consisted of 1 mM MgCl2, 160 mM NaCl, 4.5 mM KCl, 10 mM HEPES, 10 mM Glucose, 2 mM CaCl2).
Chloride Free Buffer consisted of 1 mM Magnesium Gluconate, 2 mM Calcium Gluconate, 4.5 mM Potassium Gluconate, 160 mM Sodium Gluconate, 10 mM HEPES, 10 mM Glucose.
BathI Dye Solution consisted of Bath 1 Buffer, 0.04% Pluronic F127, 20 μM Methyl Oxonol, 30 μM CaCCinh-A01, 30 μM Chicago Sky Blue.
Chloride Free Dye Solution consisted of Chloride Free Buffer, 0.04% Pluronic F127, 20 μM Methyl Oxonol, 30 μM CaCCinh-A01, 30 μM Chicago Sky Blue.
Chloride Free Dye Stimulation Solution consisted of Chloride Free Dye Solution, 10 μM forskolin, 100 μM IBMX, and 300 nM Compound III.
Human intestinal epithelial enteroid cells were obtained from the Hubrecht Institute for Developmental Biology and Stem Cell Research, Utrecht, The Netherlands and expanded in T-Flasks as previously described (Dekkers J F, Wiegerinck C L, de Jonge H R, Bronsveld I, Janssens H M, de Winter-de Groot K M, Brandsma A M, de Jong N W M, Bijvelds M J C, Scholte B J, Nieuwenhuis E E S, van den Brink S, Clevers H, van der Ent C K, Middendorp S and M Beekman J M. A functional CFTR assay using primary cystic fibrosis intestinal organoids. Nat Med. 2013 July;19(7):939-45.).
3. Enteroid Cell Harvesting and Seeding
Cells were recovered in cell recovery solution, collected by centrifugation at 650 rpm for 5 min at 4° C., resuspended in TrypLE and incubated for 5 min at 37° C. Cells were then collected by centrifugation at 650 rpm for 5 min at 4° C. and resuspended in IEMM containing 10 μM ROCK inhibitor (RI). The cell suspension was passed through a 40 μm cell strainer and resuspended at 1×10^6 cells/mL in IEMM containing 10 μM RI. Cells were seeded at 5000 cells/well into multi-well plates and incubated for overnight at 37° C., 95% humidity and 5% CO2 prior to assay.
4. Membrane Potential Dye, Enteroid Assay A
Enteroid cells were incubated with test compound in IEMM for 18-24 hours at 37° C., 95% humidity and 5% CO2. […] Briefly, cells were washed 5 times in Bath 1 Buffer. Bath 1 Dye Solution was added, and the cells were incubated for 25 min at room temperature. Following dye incubation, cells were washed 3 times in Chloride Free Dye Solution. Chloride transport was initiated by addition of Chloride Free Dye Stimulation Solution and the fluorescence signal was read for 15 min. […] Chloride transport was then expressed as a percentage of the chloride transport following treatment with 3 μM N-[(6-amino-2-pyridyl)sulfonyl]-6-(3-fluoro-5-isobutoxy-phenyl)-2-[(4S)-2,2,4-trimethylpyrrolidin-1-yl]pyridine-3-carboxamide, 3 μM (R)-1-(2,2-difluorobenzo[d][1,3]dioxol-5-yl)-N-(1-(2,3-dihydroxypropyl)-6-fluoro-2-(1-hydroxy-2-methylpropan-2-yl)-1H-indol-5-yl)cyclopropanecarboxamide and 300 nM acute N-[2,4-bis(1,1-dimethylethyl)-5-hydroxyphenyl]-1,4-dihydro-4-oxoquinoline-3-carboxamide triple combination control (% Activity).

Sequence of CFTR (P13569 with tags, fused parts or gaps DEL508-508): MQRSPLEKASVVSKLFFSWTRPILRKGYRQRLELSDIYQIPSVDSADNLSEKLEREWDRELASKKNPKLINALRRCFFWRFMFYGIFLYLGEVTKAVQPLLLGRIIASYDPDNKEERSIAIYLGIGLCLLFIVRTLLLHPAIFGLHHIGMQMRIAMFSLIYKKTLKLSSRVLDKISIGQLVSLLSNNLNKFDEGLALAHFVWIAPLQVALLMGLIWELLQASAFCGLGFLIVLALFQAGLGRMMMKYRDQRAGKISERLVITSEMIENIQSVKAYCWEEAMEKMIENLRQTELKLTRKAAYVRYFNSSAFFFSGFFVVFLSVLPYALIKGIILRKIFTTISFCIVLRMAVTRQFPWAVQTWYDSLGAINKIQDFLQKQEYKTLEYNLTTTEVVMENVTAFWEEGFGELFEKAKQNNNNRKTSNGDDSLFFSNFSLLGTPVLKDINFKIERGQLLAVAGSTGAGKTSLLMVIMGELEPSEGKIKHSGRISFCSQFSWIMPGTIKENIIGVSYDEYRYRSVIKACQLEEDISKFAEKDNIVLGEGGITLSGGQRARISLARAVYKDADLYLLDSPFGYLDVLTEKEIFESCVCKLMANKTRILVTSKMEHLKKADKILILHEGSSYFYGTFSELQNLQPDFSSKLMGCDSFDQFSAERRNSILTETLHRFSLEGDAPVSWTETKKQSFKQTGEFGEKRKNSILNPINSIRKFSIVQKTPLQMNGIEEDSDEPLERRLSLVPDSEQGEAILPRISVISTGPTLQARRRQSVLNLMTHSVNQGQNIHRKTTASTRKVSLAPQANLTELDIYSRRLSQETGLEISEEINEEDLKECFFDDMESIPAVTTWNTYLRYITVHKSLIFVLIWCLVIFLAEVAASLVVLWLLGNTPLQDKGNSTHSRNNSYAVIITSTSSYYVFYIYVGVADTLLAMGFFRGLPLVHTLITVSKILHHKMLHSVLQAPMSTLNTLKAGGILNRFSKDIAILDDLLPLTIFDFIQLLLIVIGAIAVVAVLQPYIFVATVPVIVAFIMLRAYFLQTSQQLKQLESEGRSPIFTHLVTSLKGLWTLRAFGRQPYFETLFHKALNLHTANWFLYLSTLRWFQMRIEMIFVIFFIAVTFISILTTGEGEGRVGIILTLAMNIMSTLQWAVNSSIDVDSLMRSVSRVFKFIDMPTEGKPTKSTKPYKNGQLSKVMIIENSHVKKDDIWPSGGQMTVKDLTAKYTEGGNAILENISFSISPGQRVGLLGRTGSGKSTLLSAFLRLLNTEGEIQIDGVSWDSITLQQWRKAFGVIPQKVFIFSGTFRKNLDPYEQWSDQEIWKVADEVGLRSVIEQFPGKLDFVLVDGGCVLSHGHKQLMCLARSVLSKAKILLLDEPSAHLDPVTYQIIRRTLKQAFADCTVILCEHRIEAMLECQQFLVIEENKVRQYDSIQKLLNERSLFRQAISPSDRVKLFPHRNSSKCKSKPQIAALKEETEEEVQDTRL

Compound	Ent. A Max Activity (Table 6)	EC50 (Table 6)	Ent. A Max Activity (Table 7)	EC50 (Table 7)
Cc1cccc(C)c1-c1cc2nc(n1)NS(=O)(=O)c1cccc(c1)C(=O)N(C)CC(CN(CCC(C)(C)C)CCC(C)(C)C)O2 (centres unmarked) [Compound 98, 10-[[bis(3,3-Dimethylbutyl)amino]methyl]-6-(2,6-dimethylphenyl)-12-methyl-2,2-dioxo-9-oxa-2λ^6-thia-3,5,12,19-tetrazatricyclo[12.3.1.14,8]nonadeca-1(18),4(19),5,7,14,16-hexaen-13-one]	+++ (+++ is >60%)	< 1000 nM	–	–
Cc1cccc(C)c1-c1cc2nc(n1)NS(=O)(=O)c1cccc(c1)CN(Cc1ccccc1OC(C)C)[C@H](CC(C)C)CO2 [Compound 1036]	–	–	++ (++ is 30-60%)	< 1000 nM
Cc1cccc(C)c1-c1cc2nc(n1)NS(=O)(=O)c1cccc(c1)C(=O)N(Cc1ccn[nH]1)[C@H](CC(C)C)CO2 [Compound 860]	+++ (+++ is >60%)	< 1000 nM	–	–
CNC(=O)c1ccc(CN2C(=O)c3cccc(c3)S(=O)(=O)Nc3nc(cc(-c4c(C)cccc4C)n3)OC[C@H]2CC2(C(F)(F)F)CC2)cc1 [Compound 682]	–	–	+ (+ is <30%)	1000 to 3000 nM
Cc1cccc(C)c1-c1cc2nc(n1)NS(=O)(=O)c1cccc(c1)C(=O)N(C)CC(c1ccc(C3=CCOCC3)cc1)O2 (centres unmarked) [Compound 671]	–	–	+++ (+++ is >60%)	< 1000 nM
Cc1cccc(C)c1-c1cc2nc(n1)NS(=O)(=O)c1cccc(c1)CN(C(=O)CC(C)(C)C)[C@H](CC(C)C)CO2 [Compound 1046]	–	–	+ (+ is <30%)	–
Cc1cccc(C)c1-c1cc2nc(n1)NS(=O)(=O)c1cccc(c1)C(=O)N(Cc1ccc(N3CCC(O)CC3)nc1)[C@H](CC(C)C)CO2 [Compound 966]	–	–	+++ (+++ is >60%)	< 1000 nM
Cc1cccc(C)c1-c1cc2nc(n1)NS(=O)(=O)c1cccc(c1)C(=O)N(Cc1ccc(C3CCN(C)CC3)cc1)[C@H](CC(C)C)CO2 [Compound 87, (11R)-6-(2,6-Dimethylphenyl)-11-isobutyl-12-[[4-(1-methyl-4-piperidyl)phenyl]methyl]-2,2-dioxo-9-oxa-2λ^6-thia-3,5,12,19-tetrazatricyclo[12.3.1.14,8]nonadeca-1(18),4(19),5,7,14,16-hexaen-13-one]	+++ (+++ is >60%)	< 1000 nM	–	–
Cc1cccc(C)c1-c1cc2nc(n1)NS(=O)(=O)c1cccc(c1)C(=O)N(CCC1CCOCC1)[C@H](C)CO2 [Compound 988]	–	–	+ (+ is <30%)	3000 to 30000 nM
Cc1cccc(C)c1-c1cc2nc(n1)NS(=O)(=O)c1cccc(c1)C(=O)N(Cc1cncn1C)[C@H](CC(C)C)CO2 [Compound 365]	+++ (+++ is >60%)	1000 to 3000 nM	–	–
Cc1cccc(C)c1-c1cc2nc(n1)NS(=O)(=O)c1cccc(c1)C(=O)N(CCC(C)(C)C)[C@H](CC(C)C)CO2 [Compound 429]	+++ (+++ is >60%)	< 1000 nM	–	–
Cc1cccc(C)c1-c1cc2nc(n1)NS(=O)(=O)c1cccc(c1)C(=O)N(Cc1ccccc1)[C@H](CC(C)C)CO2 [Compound 862]	+++ (+++ is >60%)	< 1000 nM	–	–
COc1ccc(CN2C(=O)c3cccc(c3)S(=O)(=O)Nc3nc(cc(-c4c(C)cccc4C)n3)OC[C@H]2CC2(C(F)(F)F)CC2)cc1 [Compound 679]	–	–	+++ (+++ is >60%)	< 1000 nM
Cc1cccc(C)c1-c1cc2nc(n1)NS(=O)(=O)c1cccc(c1)C(=O)N(C[C@@H](O)CO)[C@H](CC(C)C)CO2 [Compound 38, (11R)-12-[(2R)-2,3-Dihydroxypropyl]-6-(2,6-dimethylphenyl)-11-(2-methylpropyl)-9-oxa-2λ^6-thia-3,5,12,19-tetraazatricyclo[12.3.1.14,8]nonadeca-1(17),4(19),5,7,14(18),15-hexaene-2,2,13-trione]	+++ (+++ is >60%)	< 1000 nM	–	–
Cc1cccc(C)c1-c1cc2nc(n1)NS(=O)(=O)c1cccc(c1)C(=O)N(Cc1ccc(N3CCC4(CC3)COC4)nc1)[C@H](CC(C)C)CO2 [Compound 965]	–	–	+++ (+++ is >60%)	< 1000 nM
Cc1cccc(C)c1-c1cc2nc(n1)NS(=O)(=O)c1cccc(c1)C(=O)N(Cc1ccc(NC[C@@H](O)CO)nc1)[C@H](CC(C)C)CO2 [Compound 947]	–	–	+++ (+++ is >60%)	< 1000 nM
Cc1cccc(C)c1-c1cc2nc(n1)NS(=O)(=O)c1cccc(c1)C(=O)N(CCC(C)C)C(CCC1(C(F)(F)F)CC1)CO2 (centres unmarked) [Compound 688]	+++ (+++ is >60%)	< 1000 nM	–	–

Continued, values first:

Ent. A Max Activity (Table 6)	EC50 (Table 6)	Ent. A Max Activity (Table 7)	EC50 (Table 7)	Compound
+++ (+++ is >60%)	< 1000 nM	–	–	CNc1ccc(CN2C(=O)c3cccc(c3)S(=O)(=O)Nc3nc(cc(-c4c(C)cccc4C)n3)OC[C@H]2CC(C)C)cn1 [Compound 857]
++ (++ is 30-60%)	1000 to 3000 nM	–	–	Cc1cccc(C)c1-c1cc2nc(n1)NS(=O)(=O)c1cccc(c1)C(=O)N(CCC(C)C)CC(c1ccc(C(C)(C)C)cc1)O2 (centres unmarked) [Compound 341]
–	–	+ (+ is <30%)	–	COC1CCC(CC(=O)N2Cc3cccc(c3)S(=O)(=O)Nc3nc(cc(-c4c(C)cccc4C)n3)OC[C@H]2CC(C)C)CC1 (some centres unmarked) [Compound 1045]
+++ (+++ is >60%)	< 1000 nM	–	–	Cc1cccc(C)c1-c1cc2nc(n1)NS(=O)(=O)c1cccc(c1)C(=O)N(CC1CCOCC1)[C@H](CC(C)C)CO2 [Compound 352]
–	–	++ (++ is 30-60%)	< 1000 nM	COCC1CCN(c2ccc(CN3C(=O)c4cccc(c4)S(=O)(=O)Nc4nc(cc(-c5c(C)cccc5C)n4)OC[C@H]3CC(C)C)cn2)CC1 [Compound 970]
–	–	+++ (+++ is >60%)	< 1000 nM	Cc1cccc(C)c1-c1cc2nc(n1)NS(=O)(=O)c1cccc(c1)C(=O)N(CCC(C1CC1)C1CC1)[C@H](CC(C)C)CO2 [Compound 413]
+++ (+++ is >60%)	< 1000 nM	–	–	Cc1cccc(C)c1-c1cc2nc(n1)NS(=O)(=O)c1cccc(c1)C(=O)N(Cc1ccc(N3CCN(C)CC3)cc1)[C@H](CC(C)C)CO2 [Compound 856]
+++ (+++ is >60%)	< 1000 nM	–	–	Cc1cccc(C)c1-c1cc2nc(n1)NS(=O)(=O)c1cccc(c1)C(=O)N(Cc1cccc(C#N)c1)[C@H](CC(C)C)CO2 [Compound 859]
–	–	+++ (+++ is >60%)	< 1000 nM	Cc1cccc(C)c1-c1cc2nc(n1)NS(=O)(=O)c1cccc(c1)C(=O)N(C)C[C@@H](c1cccc(C(C)(C)C)c1)O2 (single isomer, unassigned) [Compound 17, 10-(3-tert-butylphenyl)-6-(2,6-dimethylphenyl)-12-methyl-2,2-dioxo-9-oxa-2λ^6-thia-3,5,12,19-tetrazatricyclo[12.3.1.14,8]nonadeca-1(18),4(19),5,7,14,16-hexaen-13-one]
+ (+ is <30%)	–	–	–	Cc1cccc(C)c1-c1cc2nc(n1)NS(=O)(=O)c1cccc(c1)C(=O)N(C)CCO2 [Compound 979]
++ (++ is 30-60%)	3000 to 30000 nM	–	–	Cc1cccc(C)c1-c1cc2nc(n1)NS(=O)(=O)c1cccc(c1)C(=O)N(Cc1ccccc1)C(C(=O)NC(C)(C)C)CO2 (centres unmarked) [Compound 44, 12-benzyl-N-tert-butyl-6-(2,6-dimethylphenyl)-2,2,13-trioxo-9-oxa-2λ^6-thia-3,5,12,19-tetrazatricyclo[12.3.1.14,8]nonadeca-1(18),4(19),5,7,14,16-hexaene-11-carboxamide]
